Data taken from publication PMC2113781 (The Journal of Cell Biology, 1985).
Where “and” joins values, the source holds several entries; their conditions need not be identical. Identical values can stand only once.

Columns and labels:
[1] = test system: muscarinic binding sites; set-up: species or system chick
[2] = test system: muscarinic cholinergic receptor; format: cell-based, chick

Row | Structure (SMILES) | nH, phenomenological cooperativity model (Hill coefficient) [1] | agonistic effect on Ca2+ mobilization [2] | type of antagonism [2] | RH, two-sites model [1] | RL, two-sites model [1] | Effect relative to acetylcholine [2] [%]
1 | CC[C@@H]1C(=O)OC[C@@H]1Cc1cncn1C [Pilocarpine, pilocarpine] | 0.68 | No reaction | reversible competitive antagonists | – | – | –
2 | CC(=O)OCC[N+](C)(C)C [Acetylcholine, acetylcholine] | 0.41 and 0.39 | full agonists | – | 15.3 pmol/L and 20.9 pmol/L | 13.8 pmol/L and 19.4 pmol/L | 100
3 | C[N+](C)(C)CCOC(N)=O [Carbachol, carbachol] | 0.41 | full agonists | – | 14.6 pmol/L | 18.4 pmol/L | 92
4 | CC(C[N+](C)(C)C)OC(N)=O (centres unmarked) [Bethanechol, bethanechol] | 0.65 | partial agonist | reversible competitive antagonists | 9.1 pmol/L | 19.9 pmol/L | 23
5 | CN1[C@@H]2CC[C@H]1C[C@@H](OC(=O)C(CO)c1ccccc1)C2 (some centres unmarked) [Atropine, atropine] | 0.79 | – | – | – | – | –
6 | O=C1CC[C@](c2ccccc2)(C2CCN(Cc3ccccc3)CC2)C(=O)N1 [Levetimide, levetimide] | 0.76 | – | reversible competitive antagonists | – | – | –
7 | O=C1CC[C@@](c2ccccc2)(C2CCN(Cc3ccccc3)CC2)C(=O)N1 [Dexetimide, dexetimide] | 0.63 | – | irreversible competitive antagonists | – | – | –
8 | O=C1CCCN1CC#CCN1CCCC1 [Oxotremorine, oxotremorine] | 0.95 | No reaction | reversible competitive antagonists | – | – | –
9 | CN1CCN(CC(=O)N2c3ccccc3C(=O)Nc3cccnc32)CC1 [Pirenzepine, pirenzepine] | 1.31 | – | reversible competitive antagonists | – | – | –
